Assay results published in US9433596B2, “Pharmaceutical composition comprising N-acetyl-L-cysteine or its derivatives for treating anxiety disorder” (SNU R&DB FOUNDATION, priority 2010, dated 2016).

Legend:
[1] = system: Sprague-Dawley Rats; assay: Fear memory renewal test, NAC administered during extinction training (exposure therapy); type: in vivo; details: NAC 200 mg/kg peritoneally once a day, days 3 to 5 after conditioning, 2.5 hours before exposure therapy, renewal tests on day 12 and day 21, vs saline control
Protocol: Sprague-Dawley Rats (8-9 weeks old, from Samtaco, Korea) were maintained with free access to water and food with 12 hour dark/light cycles (lights off at 09:00 hrs). Group of three to six animals were used for each experiment. (26 in total) For fear conditioning, the rats were presented with a tone (2.8 kHz, 85 dB) co-terminating with an electrical shock (1.0 mA, 1 s) three times at an interval of 100 sec. The rats were returned to the cage 1 minute after the last shock has been applied. Three days after the conditioning, the exposure therapy was done in a chamber distinct from the conditioning chamber for both extinction training and tone tests. 10 tones were presented at an interval of 100 sec without shocks, during which the freezing responses were measured to determine the reduction of fear memories. Unpaired, two-tailed T-test was used to analyze the results. […] The negative control was only received physiological saline. The renewal test was done on day 12 after the conditioning was completed. The same chamber and place as it was used for the fear conditioning were used for the renewal. […] The fear memory recalled was determined by measuring the freezing response as described before (Kim et al., 2007, PNAS 104 (52): 20955-960). The freezing was defined as immobility except for respiratory movements and was quantified by trained observers who were blind to the experimental groups. […]

[2] = system: Sprague-Dawley Rats; assay: Fear memory renewal test, NAC administered one day before the renewal test; type: in vivo; details: NAC 200 mg/kg peritoneally on the 7th day after 4 days of extinction training, result on the 9th day after fear conditioning, vs control
Protocol: Sprague-Dawley Rats (8-9 weeks old, from Samtaco, Korea) were maintained with free access to water and food with 12 hour dark/light cycles (lights off at 09:00 hrs). Group of three to six animals were used for each experiment. (26 in total) For fear conditioning, the rats were presented with a tone (2.8 kHz, 85 dB) co-terminating with an electrical shock (1.0 mA, 1 s) three times at an interval of 100 sec. The rats were returned to the cage 1 minute after the last shock has been applied. Three days after the conditioning, the exposure therapy was done in a chamber distinct from the conditioning chamber for both extinction training and tone tests. 10 tones were presented at an interval of 100 sec without shocks, during which the freezing responses were measured to determine the reduction of fear memories. Unpaired, two-tailed T-test was used to analyze the results. The renewal test was done on day 12 after the conditioning was completed. The same chamber and place as it was used for the fear conditioning were used for the renewal. The rats with the extinction training were placed in the conditioning chamber and were left undisturbed for 10 minutes. Then the fear memory was recalled by presenting the rats with a tone for 30 sec. […] The freezing was defined as immobility except for respiratory movements and was quantified by trained observers who were blind to the experimental groups. […]

[3] = system: Sprague-Dawley Rats; assay: Fear memory renewal test, NAC administered immediately before the renewal test; type: in vivo; details: NAC 200 mg/kg peritoneally 2.5 hours before the renewal test on the 7th and 8th day, result on the 8th day after fear conditioning, vs control
Protocol: Sprague-Dawley Rats (8-9 weeks old, from Samtaco, Korea) were maintained with free access to water and food with 12 hour dark/light cycles (lights off at 09:00 hrs). Group of three to six animals were used for each experiment. (26 in total) For fear conditioning, the rats were presented with a tone (2.8 kHz, 85 dB) co-terminating with an electrical shock (1.0 mA, 1 s) three times at an interval of 100 sec. The rats were returned to the cage 1 minute after the last shock has been applied. Three days after the conditioning, the exposure therapy was done in a chamber distinct from the conditioning chamber for both extinction training and tone tests. 10 tones were presented at an interval of 100 sec without shocks, during which the freezing responses were measured to determine the reduction of fear memories. Unpaired, two-tailed T-test was used to analyze the results. The renewal test was done on day 12 after the conditioning was completed. The same chamber and place as it was used for the fear conditioning were used for the renewal. […] The fear memory recalled was determined by measuring the freezing response as described before (Kim et al., 2007, PNAS 104 (52): 20955-960). The freezing was defined as immobility except for respiratory movements and was quantified by trained observers who were blind to the experimental groups. […]

[4] = cited from earlier work
[5] = general statement, no test described; cited from earlier work

## CC(=O)N[C@@H](CS)C(=O)O [NAC, N-acetyl-L-cysteine]
[1]; FIG. 2
  renewal of the fear memory (freezing response): the renewal of the fear memory was blocked
[1]; FIG. 2, listed as N-Acetyl-L-cysteine
  renewal of the fear memory (freezing response): the return of fear-memories was prevented and the effect was long-lasted
[2]; FIG. 4
  renewal of the fear memory (freezing response): the renewal of the fear memory was blocked
[2]; FIG. 4, listed as N-Acetyl-L-cysteine
  renewal of the fear memory (freezing response): the return of fear-memories was prevented
[3]; FIG. 6
  renewal of the fear memory (freezing response): the renewal of the fear memory was blocked
[3]; FIG. 6, listed as N-Acetyl-L-cysteine
  renewal of the fear memory (freezing response): prevented the return of fear-memories
[4]
  pKa: 3.24
[5]
  blood-brain barrier penetration: penetrate a blood-brain barrier
